Laboratory results taken from patent US20070270352A1, “Method of Treatment” (priority 2002, published 2007).
Like-named read-outs stand apart in the source and are kept apart here.

Legend:
[1] = test system: p75^NTR (i.e. Chopper)-mediated cell apoptosis; format: cell-based, mice
[2] = test system: p75^NTR-mediated cell apoptosis; assay: Caspase activity after injection into the eye of chick embryos (FIG. 11); format: in vivo; conditions: injected into the eye of chick embryos; 500 nM of Tertiapin
Experimental: FIG. 11 is a graphical representation showing that p75^NTR-mediated cell apoptosis requires functional GIRK channels. Apoptotic activity is measured in terms of caspase activity in the presence of Tertiapin, anti-NGF antibody and Iberiotoxin.
In FIG. 11, Tertiapin was injected into the eye of chick embryos. Anti-NGF antibodies and Iberiotoxin ([…]) were also tested. Apoptotic activity was measured using caspase activity.

[3] = molecular target: T1, GIRK 1 and 4 subunits (Homo sapiens, UniProt P48544+P48549); conditions: cited from earlier work
T1 sequence (P48544 whole entry, looked up): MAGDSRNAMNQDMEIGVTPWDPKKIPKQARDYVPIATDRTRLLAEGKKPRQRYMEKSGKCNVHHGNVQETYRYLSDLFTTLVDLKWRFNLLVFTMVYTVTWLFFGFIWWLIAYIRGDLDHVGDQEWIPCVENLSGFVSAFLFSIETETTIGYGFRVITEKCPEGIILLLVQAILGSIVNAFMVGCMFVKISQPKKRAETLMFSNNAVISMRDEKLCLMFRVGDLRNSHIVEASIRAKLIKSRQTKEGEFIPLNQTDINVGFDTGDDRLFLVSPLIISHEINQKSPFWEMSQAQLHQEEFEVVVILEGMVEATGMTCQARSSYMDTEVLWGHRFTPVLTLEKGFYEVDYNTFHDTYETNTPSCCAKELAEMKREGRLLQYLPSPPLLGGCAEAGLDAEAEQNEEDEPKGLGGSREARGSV
T1 sequence (P48549 whole entry, looked up): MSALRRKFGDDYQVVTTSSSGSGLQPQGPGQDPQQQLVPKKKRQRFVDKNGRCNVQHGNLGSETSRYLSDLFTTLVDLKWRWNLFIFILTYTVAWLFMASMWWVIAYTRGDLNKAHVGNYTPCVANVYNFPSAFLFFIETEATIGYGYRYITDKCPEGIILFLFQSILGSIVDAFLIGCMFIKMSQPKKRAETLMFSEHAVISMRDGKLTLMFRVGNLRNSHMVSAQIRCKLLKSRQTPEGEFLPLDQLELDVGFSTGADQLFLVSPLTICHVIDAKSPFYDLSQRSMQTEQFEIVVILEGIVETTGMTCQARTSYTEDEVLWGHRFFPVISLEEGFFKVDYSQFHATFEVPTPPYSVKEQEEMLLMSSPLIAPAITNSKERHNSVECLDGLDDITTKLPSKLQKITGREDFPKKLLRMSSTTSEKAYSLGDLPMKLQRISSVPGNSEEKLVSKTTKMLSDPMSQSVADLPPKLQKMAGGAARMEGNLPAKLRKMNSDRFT

[4] = molecular target: T2, ROMK1 channels (Homo sapiens, UniProt P48048); conditions: cited from earlier work
T2 sequence (P48048 whole entry, looked up): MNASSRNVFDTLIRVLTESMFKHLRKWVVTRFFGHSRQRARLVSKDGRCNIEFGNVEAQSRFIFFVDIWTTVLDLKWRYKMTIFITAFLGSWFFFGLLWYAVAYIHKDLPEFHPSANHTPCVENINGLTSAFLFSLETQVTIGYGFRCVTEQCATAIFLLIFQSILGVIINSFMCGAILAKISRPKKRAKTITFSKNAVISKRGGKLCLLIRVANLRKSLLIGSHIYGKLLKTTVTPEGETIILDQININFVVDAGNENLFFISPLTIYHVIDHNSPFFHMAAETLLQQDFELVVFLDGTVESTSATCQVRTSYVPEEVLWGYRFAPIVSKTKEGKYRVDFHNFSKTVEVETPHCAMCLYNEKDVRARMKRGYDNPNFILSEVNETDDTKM

[5] = p75NTR (Chopper)-mediated apoptosis of neuronal cells, neuronal viability after Chopper peptide, inhibitor added just prior or pretreated

Compound | Prevention of killing? [1, 5] | other results
2-APB | No | –
Nc1ccncc1 [4-aminopyridine] | Toxic | –
CC(=O)OCOC(=O)CN(CC(=O)OCOC(C)=O)c1ccccc1OCCOc1ccccc1N(CC(=O)OCOC(C)=O)CC(=O)OCOC(C)=O [BAPTA-AM] | Yes | –
O=C(O)CN(CC(=O)O)c1ccccc1OCCOc1ccccc1N(CC(=O)O)CC(=O)O [BAPTA] | No | –
NCC(CC(=O)O)c1ccc(Cl)cc1 (stereo not shown) [Baclofen] | – | cell survival ([1]; GABA receptor agonist activating GIRKs (FIG. 10 model)): promotion of cell survival
CCCCN1CCCCC1C(=O)Nc1c(C)cccc1C (stereo not shown) [Bupivicane] | Yes | Chopper domain-mediated killing / p75^NTR (i.e. Chopper)-mediated cell apoptosis ([1]; FIGS. 3-7, 10): inhibited
CC[N+](CC)(CC)CC.[Cl-] [TEA, Tetraethylammonium chloride] | – | Chopper domain-mediated killing / p75^NTR (i.e. Chopper)-mediated cell apoptosis [1]: inhibited; Prevention of killing? [1]: Yes
Charybdotoxin | Yes | Chopper domain-mediated killing / p75^NTR (i.e. Chopper)-mediated cell apoptosis ([1]; FIGS. 3-7, 10): inhibited
Iberiotoxin (QFTDVDCSVSKECWSVCKDLFGVDRGKCMGKKCRCYQ; UniProt P24663 1-37, looked up) | No | –
Margatoxin | No | –
Pertussis toxin [Pertusis toxin] | No | Chopper domain-mediated killing / p75^NTR (i.e. Chopper)-mediated cell apoptosis ([1]; FIGS. 3-7, 10): still results in Chopper-mediated killing
TTX | – | Prevention of killing? [1]: No
Tertiapin (ALCNCNRIIIPHMCWKKCGKK) | Yes | Chopper domain-mediated killing / p75^NTR (i.e. Chopper)-mediated cell apoptosis ([1]; FIGS. 3-7, 10): inhibited; caspase activity (apoptotic activity) [2]: effective in reducing caspase activity; affinity of inhibition [3]: nanomolar affinities; affinity of inhibition [4]: nanomolar affinities
δ-Dendrotoxin | No | –
